Measured values from patent US9642819B2, “Low dosage serotonin 5-HT2A receptor agonist to suppress inflammation” (BOARD OF SUPERVISORS OF LOUISIANA STATE UNIVERSITY AND …, priority 2008, dated 2017).
Entries after “also recorded” stand apart in the source; their conditions may differ.

Tests used:
[1] = test system: nitrite accumulation in C6 glioma cells; settings: cocktail of TNF-α, read-out: IC50 for partial block of LPS and cytokine stimulated nitrite accumulation; cited from earlier work
[2] = test system: ICAM-1, VCAM-1, and IL-6 gene expression; assay: TNF-α induced proinflammatory gene expression (ICAM-1, VCAM-1, IL-6) by Q-RT-PCR in RASM cells; type: cell-based, rat; settings: for effect of receptor antagonist on the inhibitory effects of (R)-DOI: antagonist 100 nM 30 minutes prior to 1 nM (R)-DOI, then TNF-α
Protocol: (§1) RASM cells and treatment. Rat aortic smooth muscle (RASM) cells were isolated from adult 180 g male Sprague-Dawley rats and provided by the Cell and Molecular Core Facility in the Department of Pharmacology at LSUHSC-NO. Isolated RASM cells were grown in M-199 media containing 10% fetal bovine serum (Gibco), 100 units/mL penicillin, and 100 µg/mL streptomycin, and incubated at 37° C. in 5% CO2. Cells for all assays were used between passages 3 and 5. Prior to treatments, cells were grown in M-199 media with 10% fetal bovine serum (FBS) until 30-50% confluent. For most assays, cells were treated with (R)-DOI, or other drugs as indicated, at specific concentrations for 24 hours, followed by TNF-α (10 ng/ml) and (R)-DOI at the same pretreatment concentrations in fresh M-199 media. After another 24 hours, the cells were scraped, pelleted, and processed for RNA.
(§2) RNA isolation and Quantitative Realtime-PCR. RNA was extracted from cells using Illustra RNAspin Mini kits from GE Healthcare Life Sciences (Piscataway, N.J.) following protocols supplied by the manufacturer. First strand cDNA was generated using the ImProm-II cDNA synthesis kit (Promega) following the manufacturers protocols. Q-RT-PCR was performed using the ProbeLibrary system from Roche (Indianapolis, Ind.) in combination with the HotStart-IT probe qpcr master mix from USB Biological (Cleveland, Ohio) following manufactures protocols.
(§3) Primers were synthesized by IDT (Coralville, Iowa). ProbeLibrary probes from Roche were: U3, U74, U13, U106, U79 for 5-HT2AR, ICAM-1, VCAM-1, IL-6, and cyclophillin B, respectively. Quantitative determination of gene expression levels using a 2-step cycling protocol was performed on a MyIQ-5 Cycler (Bio-Rad, Hercules Calif.). Relative gene expression levels were calculated using the 2^[−ΔΔC(T)] method. Levels of all targets from the test samples were normalized to rat cyclophillin B expression.
(§4) To examine the effects of 5-HT2A receptor activation on TNF-α mediated proinflammatory gene expression, RASM cells were pretreated with (R)-DOI, a selective 5-HT2 receptor agonist, as described above. Dose-response curves were determined for the effects on ICAM-1, VCAM-1, and IL-6 gene expression for twelve different concentrations of (R)-DOI ranging from 0.1 pM to 100 nM, with each experiment repeated in triplicate. In FIGS. 1A-1C, the Y-axis represents a percent of TNF-α for the dose of (R)-DOI indicated on the X-axis.

ICAM-1 gene expression [3] = assay: TNF-α induced ICAM-1 gene expression in primary rat aortic smooth muscle cells; type: cell-based; settings: for block of TNF-α induced ICAM1 gene expression at 1 nM: VCAM1 and IL6 identical
Protocol: as §1, §2, §3, §4

[4] = test system: Nitric Oxide Synthetase (NOS) activity; assay: NOS activity: nitrite levels in culture medium of RASM cells after TNF-α; type: cell-based, rat; settings: 100 nM prior to 1 nM (R)-DOI
Protocol: Nitric Oxide Synthetase (NOS) Activity. NOS activity was determined by detection of nitrite levels in the cell culture medium following (R)-DOI/TNF-α treatments utilizing the Nitrate Detection kit from Assay Designs (Ann Arbor, Mich.) following the manufacturers protocols. Absorbances were detected at 539 nm on a […] SpectraMax M2 plate reader.
A key participant in inflammatory processes is NOS activity (Guzik et al., 2003). NOS activity can regulate NF-kB activation (Ckless et al., 2007), and cytokine pathway-activated NF-kB can transcriptionally regulate iNOS gene expression (Guo et al., 2007). To examine the effects of 5-HT2A receptor activation on this component of inflammatory mechanisms, primary RASM cells were used to examine the ability of 1 nM (R)-DOI to block TNF-α mediated increases in nitrite levels.
As an indicator of NOS activity, nitrite levels were measured in the cell culture media after treatments and are shown in FIG. 6 as % control. […] Pretreatment with 1 nM (R)-DOI for 24 hours blocked TNF-α mediated increases in nitrite accumulation (DOI+T).

[5] = test system: nuclear translocation of p65; assay: Nuclear translocation of NF-κB subunit p65 in RASM cells; type: cell-based, rat; settings: pretreatment of the 1 hour time point
Protocol: Nuclear Translocation of p65. RASM cells were grown in M-199 medium+10% FBS until 50% confluent in 8 well chamber slides. Cells were treated with 1 nM (R)-DOI for various times as indicated, and TNF-α (10 ng/ml; tumor necrosis factor alpha) added. Thirty minutes after TNF-α treatment, cells were fixed and processed with rabbit anti p65 primary and Alexafluor 488-conjugated goat secondary antibodies as described in Zerfaoui et al. (2008) (Zerfaoui et al., 2008). Fluorescent signal was visualized on a Leica DMRA2 fluorescent microscope.
Both ICAM-1 and VCAM-1 gene transcription during inflammatory processes is regulated by the transcription factor NF-κB (Collins et al., 1995). During this process, NF-κB must be activated, and then translocated from the cytoplasm to the nucleus, where it promotes gene transcription. To investigate whether 5-HT2A receptor stimulated inhibition of NF-κB activation and translocation might be a possible mechanism for blockade of proinflammatory gene expression changes, a series of immunohistochemical experiments were conducted examining p65 translocation in RASM cells. TNF-α treatment for 30 minutes caused the expected dramatic shift in localization of the p65 subunit of NF-κB from the cytoplasm to the nucleus (FIG. 7A). […]

ICAM-1 gene expression [6] = assay: TNF-α induced ICAM-1 gene expression in rat C6 glioma cells; type: cell-based; settings: 1 nM and 50 nM prior to TNF-α
Protocol: Experiments were conducted to analyze for the effect of 5-HT2A receptor activation on proinflammatory marker expression in other cell types. Human neuroblastoma cells (SHSY5Y) and rat glioma cells (C6) can be obtained from the American Type Culture Collection (Manassas, Va.), but were provided Purdue University. The cells were grown in DMEM+10% FBS. DMEM was made and provided by the Cell and Molecular Core of the Mentoring in Cardiovascular Biology COBRE center at LSUHSC-NO. FBS was purchased from Invitrogen (Carlsbad, Calif.). Primary rat aortic endothelial cells were prepared fresh and provided by the Cell and Molecular Core of the Mentoring in Cardiovascular Biology COBRE center at LSUHSC-NO. Cells were tested at passages 3-4. Cells were grown in endothelial cell growth medium (Cell Applications, Inc.). Primary rat bronchoaveolar macrophage cells were obtained by lung lavage from rats and used at day 3 or 4 post plating in DMEM+10% FBS.
All treatments with 5-HT2A receptor agonists occurred 1 hour prior to the addition of TNF-alpha (10 ng/ml) or LPS (100 ng or 1 mg) depending on the experiment. All RNA isolations, cDNA synthesis, QPCR gene expression assays examining ICAM1, VCAM1, and IL6, and data analysis were performed as described above in Example 1, except the primers were different for the human cell experiment. […]

5-HT2A receptors = 5-HT2A receptors (Homo sapiens, UniProt P28223); settings: cited from earlier work
5-HT2A receptors, sequence (P28223 whole entry): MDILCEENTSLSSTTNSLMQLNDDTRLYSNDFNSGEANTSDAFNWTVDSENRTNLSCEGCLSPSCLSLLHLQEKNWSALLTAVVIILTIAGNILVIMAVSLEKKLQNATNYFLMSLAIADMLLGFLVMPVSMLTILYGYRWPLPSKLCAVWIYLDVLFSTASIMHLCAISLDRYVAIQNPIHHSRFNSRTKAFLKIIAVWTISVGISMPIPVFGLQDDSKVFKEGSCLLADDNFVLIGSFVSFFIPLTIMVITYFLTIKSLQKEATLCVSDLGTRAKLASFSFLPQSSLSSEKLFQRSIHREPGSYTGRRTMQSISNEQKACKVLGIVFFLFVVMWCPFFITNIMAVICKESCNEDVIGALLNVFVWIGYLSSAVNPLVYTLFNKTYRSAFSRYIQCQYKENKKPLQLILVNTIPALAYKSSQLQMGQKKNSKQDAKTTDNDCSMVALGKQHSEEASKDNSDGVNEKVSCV

α1-adrenergic receptors = settings: cited from earlier work
histamine H1 receptors = histamine H1 receptors (Homo sapiens, UniProt P35367); settings: cited from earlier work
histamine H1 receptors, sequence (P35367 whole entry): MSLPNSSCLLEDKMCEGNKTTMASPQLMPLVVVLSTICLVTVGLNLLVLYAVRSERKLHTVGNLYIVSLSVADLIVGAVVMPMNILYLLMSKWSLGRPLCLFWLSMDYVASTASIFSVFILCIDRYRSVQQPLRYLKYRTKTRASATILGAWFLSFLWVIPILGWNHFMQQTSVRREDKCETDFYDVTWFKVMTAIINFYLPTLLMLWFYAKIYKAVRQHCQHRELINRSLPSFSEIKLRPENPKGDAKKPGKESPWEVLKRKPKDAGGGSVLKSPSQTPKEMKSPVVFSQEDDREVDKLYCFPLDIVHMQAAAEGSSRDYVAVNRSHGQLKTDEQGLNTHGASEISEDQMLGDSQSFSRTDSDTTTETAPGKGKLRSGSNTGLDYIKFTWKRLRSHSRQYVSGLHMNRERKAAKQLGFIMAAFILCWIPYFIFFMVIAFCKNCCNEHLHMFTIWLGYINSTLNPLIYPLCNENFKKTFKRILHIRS

Compound: COc1cc(CC(C)N)c(OC)cc1I (racemic) [DOI, 1-(2,5-dimethoxy-4-iodophenyl)-2-aminopropane]
- IC50 [1]: 8 ± 3 nM

Compound: COc1cc(OC)c(C(=O)CCCCN2CCC3(CC2)NC(=O)NC3=O)cc1NS(=O)(=O)c1ccc(C(F)(F)F)cc1.Cl [RS102221, reference compound]
- effect of receptor antagonist on the inhibitory effects of (R)-DOI ([2]; hydrochloride): did not block; also recorded: had no effect

Compound: COc1ccc2c(c[n+](C)c3c4cc5c(cc4ccc23)OCO5)c1OC.[Cl-] [chelerythrine, 1,2-Dimethoxy-12-methyl[1,3]benzodioxolo[5,6-c]phenanth ridinium chloride, reference compound]
- effect of kinase inhibitor on (R)-DOI inhibition of TNF-α induced ICAM-1 expression (ICAM-1 gene expression [3]; inhibitor 100 nM 30 minutes prior to 1 nM (R)-DOI, then TNF-α): blocked the effects of TNF-α-induced gene expression; also recorded: completely inhibited
- effect of PKC inhibitor on (R)-DOI block of nitrite accumulation [4]: completely inhibited
- effect of PKC inhibitor on (R)-DOI induced inhibition of p65 translocation [5]: blocked

Compound: Cc1cc(NC(=O)Nc2ccc3c(ccn3C)c2)sn1 [SB204741, N-(1-Methyl-1H-indolyl-5-yl)-N″-(3-methyl-5-isothiazolyl)urea, reference compound]
- effect of receptor antagonist on the inhibitory effects of (R)-DOI [2]: did not block; also recorded: had no effect

Compound: COc1cccc([C@H](O)C2CCN(CCc3ccc(F)cc3)CC2)c1OC [M100907, R(+)-a-(2,3-dimeth-oxyphenyl)-1-[2-(4-fluorophenylethyl)]-4-pipeddine-methanol, reference compound]
- effect of receptor antagonist on the inhibitory effects of (R)-DOI [2]: blocked the effects of (R)-DOI
- effect of receptor antagonist on the inhibitory effects of (R)-DOI ([2]; listed as MDL100907): completely blocked

Compound: CC1CC(C)N1C(=O)C1C=C2c3cccc4[nH]cc(c34)CC2N(C)C1 (stereo not drawn) [LA-SS-Az, (2′S,4′S)-(+)-9,10-Didehydro-6-methylergoline-8β-(trans-2,4-dimethylazetidide)]
- induced gene expression blocked at 1 nM (ICAM-1 gene expression [3]; 1 nM pretreatment): about 50%
- block of TNF-α induced ICAM1 gene expression at 1 nM (ICAM-1 gene expression [3]; 1 nM pretreatment): moderately effective
- block of TNF-α induced ICAM1 gene expression at 50 nM (ICAM-1 gene expression [3]; 50 nM pretreatment): effectively blocked
- effect on ICAM-1 gene expression in rat glioma cells (ICAM-1 gene expression [6]): blocked

Compound: CCN(CC)C(=O)[C@@H]1C=C2c3cccc4[nH]cc(c34)C[C@H]2N(C)C1 [LSD, Lysergic acid diethylamide, reference compound]
- block of TNF-α induced ICAM1 gene expression at 1 nM (ICAM-1 gene expression [3]; 1 nM pretreatment): weak to moderate effects
- TNF-α effect blocked at 50 nM (ICAM-1 gene expression [3]; 50 nM pretreatment): about 85%

Compound: O=C(c1ccc(F)cc1)C1CCN(CCn2c(=O)[nH]c3ccccc3c2=O)CC1 [ketanserin]
- selectivity for 5-HT2A receptors over 5-HT2C receptors (5-HT2A receptors): ~20 fold
- affinity for α1-adrenergic receptors (α1-adrenergic receptors): high affinity
- potency at blocking histamine H1 receptors (histamine H1 receptors): equipotent

Compound: CCCCCCCCCCCCCC(=O)O[C@@H]1[C@@H](C)[C@@]2(O)[C@@H](C=C(CO)C[C@]3(O)C(=O)C(C)=C[C@@H]23)[C@@H]2C(C)(C)[C@]12OC(C)=O [PMA, Phorbol 12-myristate 13-acetate, reference compound]
- effect on TNF-α mediated expression in the absence of (R)-DOI ([2]; 100 nM prior to TNF-α, ICAM1, VCAM1, IL6): blocks the effects of TNF-α; also recorded: completely block
